Reference: paper PMC12503906, “Novel Pyrazolo [1,5‐a]−1,3,5‐Triazine Derivatives as CDK7 Inhibitors: Synthesis and Biological Insights in Pancreatic Ductal Adenocarcinoma Models” (Chemmedchem, 2025)
Where two headings read alike, the source gives them in different places.

What was measured:
Type in all cases: cell-based
PDAC3 = assay: SRB chemosensitivity assay, primary PDAC3 cells
Experimental: Three lines of immortalized PDAC cells were selected as representative phenotypes: mesenchymal (PATU‐T), quasimesenchymal (PANC‐1), and an epithelial clone of SUIT 2 cells (SUIT 2.28). Cells were cultured in noncoated T‐75 and T‐25 flasks under adherent conditions, using 1× DMEM (Gibco, 41,966,029) for PATU‐T and RPMI (Gibco, 21,875,034) for SUIT 2.28 and PANC‐1, both supplemented with 10% NBCS and 1% P/S. Additional employed models were the PDAC3 cells, a primary cell culture, the PSCs, which were immortalized healthy pancreatic cells, and the PATU‐T‐GR, which was a gemcitabine resistant model of PATU‐T. PDAC3 and PSCs were cultivated using complete RPMI medium, while PATU‐T‐GR required complete DMEM medium. For seeding, cells were detached with Trypsin‐EDTA (0.05%) (GibcoTM, 25,300–096) and were consequently counted using the Automated Cell Counter (Luna‐II, Westburg). Cells were then plated on 96‐ or 6‐well plates depending on the planned experiment.
The Sulforhodamine B (SRB) chemosensitivity assay was used to measure cytotoxicity and cell proliferation post drug treatment. At day 0, 3–6 × 10^3 cells were seeded in a 96‐well plate, depending on the cell line. At day 1, cells were attached and ready to be treated. For the calculation of the IC50, drug dilutions for the compounds 1b, 1c, 1d, 1e, 1g, 1hr, 1i, 1j, and LDC4297 (MedChemExpress, HY‐12,653) were prepared in dilution trays and eight different concentrations were included. These were added in triplicates to the cells, which were then incubated for […] at 37 °C in 5% CO2. During day 1, the control plate was fixed with 50% Trichloroacetic acid (TCA), as intended to be the baseline plate used for the normalization of the data. 72 h post‐treatment, the cells were fixed with TCA, and placed at 4 °C for about 2 h. The plates were then washed with distillated water and left to dry under the hood with ventilation. Subsequently, plates were stained with 0.4% SRB for 15 min and washed with 1% acetic acid to remove excess stain. Once dried again, the protein‐bound SRB was dissolved in 10 mM TRIS, and the plates were placed on a shaker for 10 min per plate. Lastly, the absorbance was measured at 492 nm with a spectrophotometer (Synergy HT, BioTek). The absorbance data obtained were normalized to the day 1 control, and the percentage of cell growth in relation to the control was calculated using the following formula. (1) %Cell growth=Mean OD treatment−Mean OD day0/Mean OD control−Mean OD day0×100
The percentage of proliferation and their respective standard deviations were used to perform statistical analysis in GraphPad Prism software v 10 (GraphPad Software, San Diego, CA). Data were normalized to the day 0 control and to their own untreated 72 h control. These were transformed into logarithmic data, and log(inhibitor) versus response analysis was performed for obtaining the IC50 values per cell lines. Each experiment was conducted in triplicates.

Bax/Bcl‐2 = Bax/Bcl‐2 ratio by RT‐PCR, PANC‐1 cells
Experimental: In order to understand modulation of downstream genes of CDK7, gene expression analysis by qPCR was performed in all cell lines. Cells (5 × 10^5/well) were seeded in 6‐well plates and treated with the compounds 1b and 1g at 1× and 4 × IC50 concentrations. Cell lysates were collected 24 h post‐treatment using 300 µL of TRIzol Reagent (Ambion, 15,596,018) per well. Total RNA was extracted by mixing 60 µL of chloroform to the samples, incubating for 3 min and centrifuging at 12,000 rcf for 15 min at 4 °C. The upper aqueous phase containing RNA was transferred to a new Eppendorf and mixed with 120 µL of cold isopropanol in order to allow the RNA to precipitate. Samples were incubated at RT for 10 min and were then centrifuged at 12,000 rcf for 10 min at 4 °C. The isopropanol was carefully removed, and the pellet was washed twice with 70% ETOH. Pellets were left to air dry and consequently resuspended in RNAse‐free water. Samples were left agitation on a thermomixer at 55 °C for 10 min at 600 rpm and were then quantified through NanoDrop technology (Thermo Scientific, NanoDrop One/One^c). RNA samples were stored at −80 °C.
In order to perform cDNA synthesis, the First Strand cDNA synthesis kit (Thermo Scientific, K1612) was used. The previously isolated RNA was mixed with 1 µL of oligo dT18 primer into a pcr tube. Nuclease free water was added to reach a final volume of 11 µL. Samples were centrifuged at 1200 rcf for 5 min and were then placed on a thermomixer at 65 °C for a few minutes. A master mix was prepared, including 4 µL of 5× reaction buffer, 1 µL of ribolock RNAse inhibitor, 2 µL of dntp mix (10 mM), and 2 µL of M‐mulv reverse transcriptase for each sample. In total 9 µL of master mix were added to each vial. Samples were centrifuged again and were finally synthesized, following a cycle of 60 min at 37 °C and 5 min at 70 °C. cDNA was now finally synthesized and could be stored at −20 °C. RT‐PCRs reactions were performed using SYBR Green (Bio‐Rad, 1,725,271) (5 µL per sample), primer mix (0.3 µM) (2 µL per sample), and cDNA (10 ng µL^− ^1) (3 µL per sample). […] RT‐PCR assays were carried out in a GeneAmp 5700 Sequence Detection System programmed to hold at 50 °C for 30 min, to hold at 95 °C for 10 min, and to complete 45 cycles of 95 °C for […] and 50 °C for 1 min. The genes that were investigated are shown in Table 5 , with their respective forward and reverse primer sequences.

PATU‐T = assay: Wound healing assay, PATU‐T; conditions: 1 × IC50 and 4 × IC50, 4 to 24 h
Experimental: The wound healing assay was used to test the migratory ability of the selected cells post‐treatment. Cells (5 × 10^4 /well) were seeded on 96‐well. After 24 h, cells reached the optimal 100% confluency, and an artificial wound was created with a 96‐well Pintool Scratcher. The cells were immediately washed with complete medium, in order to remove cell debris after the scratch, and images of the wells were captured at time 0 h, right before the addition of the treatment. Each drug (1b and 1g) was previously diluted in the respective medium at two different concentrations: 1 × IC50 and 4 × IC50 (according to the cell specific IC50 value) and were then added to the cells. Images were then taken at timepoints 4, 8, 20, and 24 h using the Leica microscope with a JAI TMC‐137 camera to assess wound closure. The images were analyzed using the Universal Grab 6.3 software (DCILabs), and the obtained data were used to determine the percentage of migration of the cells, using the following formula. (2) % Migration=Mean width of the wound atT=0−Mean width of the wound atT=X/Mean width of the wound atT=0×100

SMILES	IC50 (PDAC3; PDAC-3, SRB, primary cell line, average ± SEM, triplicate, read-out: IC50 PDAC3) [nM]	IC50 (PDAC3; SRB, primary cell line, average ± SEM, triplicate, read-out: IC50 PDAC3) [nM]	Bax/Bcl‐2 ratio PANC‐1 (Bax/Bcl‐2; 1 × IC50, 24 h after treatment)	Bax/Bcl‐2 ratio PANC‐1 (Bax/Bcl‐2; 4 × IC50, 24 h after treatment)	inhibition of cell migration (PATU‐T)	IC50 (PDAC3; PDAC-3, read-out: IC50 PDAC3, SRB, primary cell line, average ± SEM, triplicate) [nM]	IC50 (PDAC3; read-out: IC50 PDAC3, SRB, primary cell line, average ± SEM, triplicate) [nM]
Nc1ncnc2cc(-c3c[nH]c4ccc(Br)cc34)nn12 [Compound 1b, 7‐(5‐Bromo‐1H‐indol‐3‐yl)pyrazolo[1,5‐a][1,3,5]triazin‐4‐amine]	1270	1300 ± 200	4.12	2.44	greatest inhibitory effect	–	–
Cn1cc(-c2cc3ncnc(N)n3n2)c2cc(Br)ccc21 [Compound 1g, 7‐(5‐Bromo‐1‐methyl‐1H‐indol‐3‐yl)pyrazolo[1,5‐a][1,3,5]triazin‐4‐amine]	–	–	6.41	1.83	–	684	700 ± 100
